Source: the supplement of paper PMC11451515

Test system: P12-Ichikawa
Experiment: cell viability relative to DMSO control; higher = less cytotoxic
Conditions: 48 h
Summary of the method: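 Viability, reported as a per-plate percentage of DMSO wells with cell-free wells as background, came from CellTiter-Glo One luminescence. Reading took place after 48 h at 37°C. Before that, NOMO1 or SEM (500 cells/well) or P12-Ichikawa (1000 cells/well) leukemia cells, adapted for at least four passages in each medium, were seeded in 1536-well plates (5 μl) and pin-dosed with library compounds in DMSO, 47 μM to 0.79 nM over 11 threefold points.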

[1] = HPLM + 10% dialyzed FBS, 0.000781 µM
[2] = HPLM + 10% dialyzed FBS, 0.00234 µM
[3] = HPLM + 10% dialyzed FBS, 0.00702 µM
[4] = HPLM + 10% dialyzed FBS, 0.0211 µM
[5] = HPLM + 10% dialyzed FBS, 0.0632 µM
[6] = HPLM + 10% dialyzed FBS, 0.19 µM
[7] = HPLM + 10% dialyzed FBS, 0.569 µM
[8] = HPLM + 10% dialyzed FBS, 1.71 µM
[9] = HPLM + 10% dialyzed FBS, 5.12 µM
[10] = HPLM + 10% dialyzed FBS, 15.4 µM
[11] = HPLM + 10% dialyzed FBS, 46.1 µM
[12] = RPMI 5 mM glucose + 10% FBS, 0.000781 µM
[13] = RPMI 5 mM glucose + 10% FBS, 0.00234 µM
[14] = RPMI 5 mM glucose + 10% FBS, 0.00702 µM
[15] = RPMI 5 mM glucose + 10% FBS, 0.0211 µM
[16] = RPMI 5 mM glucose + 10% FBS, 0.0632 µM
[17] = RPMI 5 mM glucose + 10% FBS, 0.19 µM
[18] = RPMI 5 mM glucose + 10% FBS, 0.569 µM
[19] = RPMI 5 mM glucose + 10% FBS, 1.71 µM
[20] = RPMI 5 mM glucose + 10% FBS, 5.12 µM
[21] = RPMI 5 mM glucose + 10% FBS, 15.4 µM
[22] = RPMI 5 mM glucose + 10% FBS, 46.1 µM
[23] = RPMI 5 mM glucose + 10% dialyzed FBS, 0.000781 µM
[24] = RPMI 5 mM glucose + 10% dialyzed FBS, 0.00234 µM
[25] = RPMI 5 mM glucose + 10% dialyzed FBS, 0.00702 µM
[26] = RPMI 5 mM glucose + 10% dialyzed FBS, 0.0211 µM
[27] = RPMI 5 mM glucose + 10% dialyzed FBS, 0.0632 µM
[28] = RPMI 5 mM glucose + 10% dialyzed FBS, 0.19 µM
[29] = RPMI 5 mM glucose + 10% dialyzed FBS, 0.569 µM
[30] = RPMI 5 mM glucose + 10% dialyzed FBS, 1.71 µM
[31] = RPMI 5 mM glucose + 10% dialyzed FBS, 5.12 µM
[32] = RPMI 5 mM glucose + 10% dialyzed FBS, 15.4 µM
[33] = RPMI 5 mM glucose + 10% dialyzed FBS, 46.1 µM

Structure (SMILES)	cell viability [1] [%]	cell viability [2] [%]	cell viability [3] [%]	cell viability [4] [%]	cell viability [5] [%]	cell viability [6] [%]	cell viability [7] [%]	cell viability [8] [%]	cell viability [9] [%]	cell viability [10] [%]	cell viability [11] [%]	cell viability [12] [%]	cell viability [13] [%]	cell viability [14] [%]	cell viability [15] [%]	cell viability [16] [%]	cell viability [17] [%]	cell viability [18] [%]	cell viability [19] [%]	cell viability [20] [%]	cell viability [21] [%]	cell viability [22] [%]	cell viability [23] [%]	cell viability [24] [%]	cell viability [25] [%]	cell viability [26] [%]	cell viability [27] [%]	cell viability [28] [%]	cell viability [29] [%]	cell viability [30] [%]	cell viability [31] [%]	cell viability [32] [%]	cell viability [33] [%]
CCc1cc(C(N)=S)ccn1	116	115	120	126	124	122	127	114	104	93.7	80.2	108	121	118	115	122	134	119	128	114	103	104	111	124	119	120	121	129	122	120	104	95.9	86.5
CC1=C(/C=C/C(C)=C/C=C/C(C)=C\C(=O)O)C(C)(C)CCC1	88.5	91.7	90.2	93.4	95.7	92.6	96.4	92.2	97.3	95.5	91.3	76.1	88.5	82.7	91	85.5	89.7	85.4	79.6	77.4	84.5	82.1	80.4	89.9	85	90	86.7	86.7	91.9	90.5	83.7	84.5	85.4
N[C@H]2CN(CC12CC1)c3c(F)cc4c(c3Cl)[N@@](C=C(C4=O)C(=O)O)C5C[C@H]5F (stereo partly drawn)	97.7	91.2	101	87.6	96.6	89.8	87.3	96.1	88.8	85.4	89.9	79.9	91	88.8	90.4	85.8	94.5	83	82.9	95	83.5	86.1	80.7	84.8	86	88.3	82.5	85.2	80.9	78	84.2	77.7	81.3
NC(=O)[C@H]1CCS[C@@H]2C[C@]3(CCCN3C(=O)Cc3ccc(NC(=O)COc4ccc(Cl)cc4Cl)cc3)C(=O)N12	113	115	120	110	114	101	73.1	16.5	18.6	18.5	12.8	110	109	120	111	128	110	106	40.3	16.5	22.9	17.5	124	120	130	134	127	125	116	70.3	28.7	39.2	23.8
O=C(CC12CC3CC(CC(C3)C1)C2)Nc1cccc2nc(NCCNCCO)ccc12	87.7	88.7	84.5	90.8	88.1	91.2	98.2	88.1	95.7	92	56.7	84.7	87.2	85.6	89.4	88.8	86.3	87.4	81.9	89.2	94.1	57.6	82	86.6	85.7	99.4	91.4	94.8	90.3	85.8	77.6	93.8	42.4
Cc1c(-c2cccc3c(CCCOc4cccc5ccccc45)c(C(=O)O)n(Cc4cccnc4)c23)c(COc2ccc(N3CCN([S+](=O)([O-])N(C)C)CC3)cc2)nn1C	96	94.3	87.4	93.2	97.4	91.6	88.5	85.8	91	80.3	71.6	92.1	87.7	94.1	85.6	87.2	92.7	84.2	88	91.2	87	74	91.7	93.4	91.4	95.3	93	88.2	82.8	90.8	81.3	82.4	67
ClC1=CC=C2N/C3=N/C(=O)CN3CC2=C1Cl	120	122	126	130	115	122	118	115	114	112	82.2												125	119	130	117	124	127	118	118	107	105	68.7
C=C1C(=O)OC(CCCCCCCC)C1C(=O)O (stereo not drawn)	105	116	113	122	123	122	124	121	129	120	115	124	120	123	132	129	122	137	132	128	129	128	107	116	122	129	124	123	133	131	133	128	113
